The series can be described thus: logP. Type of series: physicochemical.

logP data for 1 compound are collected here from patent US8080688B2, “3, 4-disubstituted phenoxyphenylamidines and use thereof as fungicides” (Bayer Cropscience AG, priority 2007, dated 2011).

Like-named read-outs stand apart in the source and are kept apart here.

Take `CCN(C)C=Nc1cc(C)c(Oc2ccc3c(c2)CCCC3)cc1C` [Compound 13, N-Ethyl-N-methyl-N′-[4-(5,6,7,8-tetrahydro-2-naphthoxy)-2,5-dimethylphenyl]formamidine]: the logP came to 2.69 (acidic, read-out: logP acidic); 6.31 (neutral, read-out: logP neutr.); 2.14 (pH 2.3, pH 2.3, read-out: log P (pH2.3)).
